Experimental data: ChEMBL document CHEMBL1137493, “Synthesis and potent antitumor activity of new arylamino derivatives of nor-beta-lapachone and nor-alpha-lapachone” (Bioorg Med Chem, 2007)
In brackets after ≈: the same amount, converted by molar mass.

Experiments:
PC-3 = test: Cytotoxicity against human PC3 cells after 72 hrs by MTT assay; type: cell-based; conditions: PC-3, 72 h
MDA-MB-435 = test: Cytotoxicity against human MDA-MB-435 cells after 72 hrs by MTT assay; type: functional, cell-based; conditions: MDA-MB-435, 72 h
HL-60 = test: Cytotoxicity against human HL60 cells after 72 hrs by MTT assay; type: functional, cell-based; conditions: HL-60, 72 h
B16 = test: Cytotoxicity against mouse B16 cells after 72 hrs by MTT assay; type: functional, cell-based; conditions: B16, 72 h
HCT-8 = test: Cytotoxicity against human HCT8 cells after 72 hrs by MTT assay; type: functional, cell-based; conditions: HCT-8, 72 h
[1] = Toxicity assessed as hemolytic activity against mouse erythrocyte; type: cell-based; conditions: mouse erythrocytes
SF-295 = test: Cytotoxicity against human SF295 cells after 72 hrs by MTT assay; type: functional, cell-based; conditions: SF-295, 72 h
L929 = test: Cytotoxicity against mouse L929 cells after 72 hrs by MTT assay; type: cell-based; conditions: L929, 72 h

SMILES	IC50 (PC-3)	IC50 (MDA-MB-435)	IC50 (HL-60)	IC50 (B16)	IC50 (HCT-8)	EC50 [1]	IC50 (SF-295)	IC50 (L929)
Cc1ccc(C)c(NC2C3=C(OC2(C)C)c2ccccc2C(=O)C3=O)c1 (stereo not given)	0.32 µg/mL (≈ 0.921 µM)	0.27 µg/mL (≈ 0.777 µM)	1.27 µg/mL (≈ 3.66 µM)	3.03 µg/mL (≈ 8.72 µM)	1.59 µg/mL (≈ 4.58 µM)	> 200 µg/mL	2.08 µg/mL (≈ 5.99 µM)	> 5 µg/mL
CC1(C)OC2=C(C(=O)C(=O)c3ccccc32)C1Nc1ccc(F)cc1 (stereo not given)	0.31 µg/mL (≈ 0.919 µM)	0.12 µg/mL (≈ 0.356 µM)	0.32 µg/mL (≈ 0.949 µM)	0.42 µg/mL (≈ 1.24 µM)	0.51 µg/mL (≈ 1.51 µM)	> 200 µg/mL	0.59 µg/mL (≈ 1.75 µM)	0.52 µg/mL (≈ 1.54 µM)
CC1(C)OC2=C(C(=O)C(=O)c3ccccc32)C1Nc1cccc(Cl)c1 (stereo not given)	0.49 µg/mL (≈ 1.38 µM)	0.17 µg/mL (≈ 0.48 µM)	0.39 µg/mL (≈ 1.1 µM)	0.56 µg/mL (≈ 1.58 µM)	0.51 µg/mL (≈ 1.44 µM)	> 200 µg/mL	0.36 µg/mL (≈ 1.02 µM)	1.16 µg/mL (≈ 3.28 µM)
CC1(C)OC2=C(C(=O)C(=O)c3ccccc32)C1Nc1cccc(Br)c1 (stereo not given)	0.46 µg/mL (≈ 1.16 µM)	0.2 µg/mL (≈ 0.502 µM)	0.5 µg/mL (≈ 1.26 µM)	0.48 µg/mL (≈ 1.21 µM)	0.7 µg/mL (≈ 1.76 µM)	> 200 µg/mL	0.93 µg/mL (≈ 2.34 µM)	1.02 µg/mL (≈ 2.56 µM)
CC1(C)OC2=C(C(=O)C(=O)c3ccccc32)C1Nc1cccc([N+](=O)[O-])c1 (stereo not given)	0.41 µg/mL (≈ 1.13 µM)	0.23 µg/mL (≈ 0.631 µM)	0.33 µg/mL (≈ 0.906 µM)	0.43 µg/mL (≈ 1.18 µM)	0.64 µg/mL (≈ 1.76 µM)	> 200 µg/mL	0.5 µg/mL (≈ 1.37 µM)	0.42 µg/mL (≈ 1.15 µM)
CC1(C)OC2=C(C(=O)C(=O)c3ccccc32)C1Nc1ccccc1 (stereo not given)	0.31 µg/mL (≈ 0.971 µM)	0.3 µg/mL (≈ 0.939 µM)	0.66 µg/mL (≈ 2.07 µM)	0.74 µg/mL (≈ 2.32 µM)	0.99 µg/mL (≈ 3.1 µM)	> 200 µg/mL	0.89 µg/mL (≈ 2.79 µM)	2.72 µg/mL (≈ 8.52 µM)
CC1(C)OC2=C(C(=O)c3ccccc3C2=O)C1Nc1ccccc1 (stereo not given)	1.34 µg/mL (≈ 4.2 µM)	0.89 µg/mL (≈ 2.79 µM)	2.99 µg/mL (≈ 9.36 µM)	1 µg/mL (≈ 3.13 µM)	1.43 µg/mL (≈ 4.48 µM)	> 200 µg/mL	2.52 µg/mL (≈ 7.89 µM)	3.08 µg/mL (≈ 9.64 µM)
COc1cccc2c1C(=O)c1c(O)c3c(c(O)c1C2=O)C[C@@](O)(C(=O)CO)C[C@@H]3O[C@H]1C[C@H](N)[C@H](O)[C@H](C)O1 [DOXORUBICIN]	0.24 µg/mL (≈ 0.442 µM)			0.03 µg/mL (≈ 0.0552 µM)	0.04 µg/mL (≈ 0.0736 µM)		0.25 µg/mL (≈ 0.46 µM)	
CC1(C)CCC2=C(O1)c1ccccc1C(=O)C2=O [LAPACHONE]		0.06 µg/mL (≈ 0.248 µM)	0.4 µg/mL (≈ 1.65 µM)		0.2 µg/mL (≈ 0.826 µM)	> 200 µg/mL	0.22 µg/mL (≈ 0.908 µM)	
CC1(C)CC2=C(O1)c1ccccc1C(=O)C2=O [NOR-BETA-LAPACHONE]		0.07 µg/mL (≈ 0.307 µM)	0.4 µg/mL (≈ 1.75 µM)		0.31 µg/mL (≈ 1.36 µM)	> 200 µg/mL	0.36 µg/mL (≈ 1.58 µM)	
